ChEMBL document CHEMBL5252520, “Inhibition of phospho-MurNAc-pentapeptide translocase (MraY) by nucleoside natural product antibiotics, bacteriophage ϕX174 lysis protein E, and cationic antibacterial peptides” (Bioorg Med Chem, 2016)
Converted amounts (≈) assume the structure as drawn. Residues, ends and D or L forms follow the SMILES beside them.

What was measured:
[1] = biological target: T1, Phospho-N-acetylmuramoyl-pentapeptide-transferase (Escherichia coli, UniProt E2QF15); experiment: Inhibition of MraY in Escherichia coli
T1 sequence (E2QF15 whole entry): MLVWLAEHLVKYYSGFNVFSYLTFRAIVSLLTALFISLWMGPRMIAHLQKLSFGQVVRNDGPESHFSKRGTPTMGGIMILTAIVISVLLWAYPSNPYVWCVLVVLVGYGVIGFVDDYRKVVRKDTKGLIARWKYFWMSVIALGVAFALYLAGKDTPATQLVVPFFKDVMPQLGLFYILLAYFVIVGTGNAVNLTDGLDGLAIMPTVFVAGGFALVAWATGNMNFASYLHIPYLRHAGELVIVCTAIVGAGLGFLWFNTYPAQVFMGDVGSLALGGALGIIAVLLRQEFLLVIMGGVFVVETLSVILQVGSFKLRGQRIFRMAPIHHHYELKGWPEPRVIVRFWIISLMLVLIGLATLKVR

[2] = Inhibition of bacterial MraY; set-up: species or system Bacteria
Staphylococcus aureus = experiment: Antibacterial activity against Staphylococcus aureus ATCC 29213 assessed as bacterial growth inhibition; type: functional
Pseudomonas aeruginosa [3] = experiment: Antibacterial activity against Pseudomonas aeruginosa H103 assessed as inhibition of bacterial growth; type: functional
Pseudomonas aeruginosa [4] = experiment: Antibacterial activity against Pseudomonas aeruginosa H103 assessed as reduction in bacterial growth; type: functional
Escherichia coli = experiment: Antibacterial activity against Escherichia coli assessed as inhibition of bacterial growth; type: functional

SMILES	IC50 [1]	IC50 [2]	MIC (Staphylococcus aureus)	MIC (Pseudomonas aeruginosa [3])	MIC (Pseudomonas aeruginosa [4])	MIC (Escherichia coli)
CC[C@@H](C)[C@H](NC(=O)[C@H](CC(C)C)NC(=O)[C@H](CC(C)C)NC(=O)[C@H](CO)NC(=O)[C@@H]1CCCN1C(=O)[C@H](CC(C)C)NC(=O)[C@H](CC(C)C)NC(=O)[C@H](CC(C)C)NC(=O)[C@H](CO)NC(=O)[C@H](CC(C)C)NC(=O)[C@H](CC(C)C)NC(=O)[C@H](CC(C)C)NC(=O)[C@H](CC(C)C)NC(=O)[C@H](Cc1ccccc1)NC(=O)[C@H](C)NC(=O)[C@H](CC(C)C)NC(=O)[C@@H](NC(=O)[C@H](CC(=O)O)NC(=O)[C@H](Cc1c[nH]c2ccccc12)NC(=O)[C@H](CC(C)C)NC(=O)[C@@H](NC(=O)[C@H](Cc1c[nH]c2ccccc12)NC(=O)[C@H](CCCNC(=N)N)NC(=O)[C@@H](NC(=O)[C@@H](N)CCSC)C(C)C)[C@@H](C)O)[C@@H](C)O)C(=O)N[C@@H](CCSC)C(=O)N[C@@H](Cc1ccccc1)C(=O)N[C@H](C(=O)N1CCC[C@H]1C(=O)N[C@@H](CO)C(=O)N[C@H](C(=O)N[C@@H](Cc1ccccc1)C(=O)N[C@@H](CCCCN)C(=O)N[C@@H](CCCNC(=N)N)C(=O)N1CCC[C@H]1C(=O)N[C@H](C(=O)N[C@@H](CO)C(=O)O)C(C)C)[C@@H](C)O)[C@@H](C)CC	0.8 µM					
CC(C)C[C@H](NC(=O)CNC(=O)[C@H](Cc1c[nH]c2ccccc12)NC(=O)[C@@H](N)CCCNC(=N)N)C(=O)N[C@@H](Cc1c[nH]c2ccccc12)C(=O)O (H-RWGLW-OH)		590 µM	30 µg/mL (≈ 41.9 µM)			
CC[C@H](C)[C@H](NC(=O)[C@H](Cc1c[nH]c2ccccc12)NC(=O)[C@@H](NC(=O)[C@@H](NC(=O)[C@H](CCCNC(=N)N)NC(=O)[C@H](Cc1c[nH]c2ccccc12)NC(=O)[C@H](Cc1c[nH]c2ccccc12)NC(=O)[C@@H](N)CCCNC(=N)N)[C@@H](C)CC)C(C)C)C(=O)N[C@@H](CCCCN)C(=O)N[C@@H](Cc1c[nH]c2ccccc12)C(=O)N[C@@H](Cc1c[nH]c2ccccc12)C(=O)N[C@@H](CCCNC(=N)N)C(=O)O (H-RWWRIVWIKWWR-OH)		40 µM		31 µg/mL (≈ 16.6 µM)	31 µg/mL (≈ 16.6 µM)	4 µg/mL (≈ 2.14 µM)
